Consider two compounds from ChEMBL document CHEMBL5325432, “Systematic study of 1,2,3-triazolyl sterols for the development of new drugs against parasitic Neglected Tropical Diseases” (Eur J Med Chem, 2023).

The nature of data set [1]: Selectivity index, ratio of IC50 for cytotoxicity against African green monkey Vero cells to IC50 for antiparasitic activity against Trypanosoma cruzi epimastigotes assessed as parasite growth inhibition. Format: toxicity, cell-based. The note with it: read-out: Ratio IC50.
Data set [2] is described as follows: Selectivity index, ratio of IC50 for cytotoxicity against African green monkey Vero cells to IC50 for antiparasitic activity against Trypanosoma brucei assessed as parasite growth inhibition. Format: toxicity, cell-based. As to conditions: read-out: Ratio IC50.
Data set [3] in a line: Selectivity index, ratio of IC50 for cytotoxicity against African green monkey Vero cells to IC50 for antileishmanial activity against Leishmania donovani S1 promastigotes assessed as parasite growth inhibition. The class given is toxicity, cell-based. As to conditions: read-out: Ratio IC50.
The nature of data set [4]: Cytotoxicity against African green monkey Vero cells incubated for 48 hrs. The class given is toxicity, cell-based. The note with it: African green monkey (Chlorocebus sabaeus).
The subject of a further data set is Leishmania donovani. The data set can be described thus: Antileishmanial activity against Leishmania donovani S1 promastigotes assessed as parasite growth inhibition incubated for 72 hrs by Alamar blue assay. The class given is functional, organism-based. The note with it: S1, 72 h.
The subject of the next data set is Trypanosoma brucei. The data set can be described thus: Antiparasitic activity against Trypanosoma brucei assessed as parasite growth inhibition incubated for 3 days by Alamar blue assay. The class given is functional, organism-based. As to conditions: 72 h. In general terms: Alamar Blue is a resazurin reagent that responds to reducing activity.
For the next data set, the system named is Trypanosoma cruzi. The data set can be described thus: Antiparasitic activity against Trypanosoma cruzi epimastigotes assessed as parasite growth inhibition incubated for 14 days by Alamar blue assay. The class given is functional, organism-based. The note with it: 336 h.
Data set [5] is described as follows: Cytotoxicity against human MRC5 cells incubated for 7 days by MTT colorimetric assay. The class given is toxicity, cell-based. A general note: Tetrazolium assays rely on reduction of a dye to a coloured formazan, in cell work by metabolically active cells.

What is called IC50 is the midpoint of a concentration-inhibition curve. In the case of `CC(C)=CCC/C(C)=C/Cn1cc(CNC[C@](C)(O)[C@H]2CC[C@H]3[C@@H]4CC=C5C[C@@H](O)CC[C@]5(C)[C@H]4CC[C@@]32C)nn1`, the selectivity ratio is more than 0.98 in data set [1], more than 13.6 in data set [2] and more than 11.4 in data set [3]. For the same compound, in data set [4], the IC50 at 48 h was more than 8.85 µM. Also, the IC50 in the data set on Leishmania donovani was determined as 0.78 µM; in the data set with Trypanosoma brucei, 0.65 µM; in the data set with Trypanosoma cruzi it was 9 µM.
As to `Nc1nc(N)nc(Nc2ccc([As]3SCC(CO)S3)cc2)n1` (centres undefined) [MELARSOPROL], the selectivity ratio in data set [2] was 62.5. The compound also registered an IC50 at 7 days in data set [5] of 12.5 µM.
